≈ marks a conversion by molar mass, not a printed value. Where two headings read alike, the source gives them in different places.
Assays:
[1] = Pharmacokinetics in infected mice (plasma, kidney, thigh; PopPK); type: in vivo, mouse
Procedure: PK and PD studies using gepotidacin were conducted in murine (male CD-1 mice) thigh and kidney infections. The administered doses ranged from 1 to 200 mg/kg SC every 6 hours starting 1h post infection. Infected tissues were evaluated for bacterial burden at 24 h post infection (baseline controls at 1 h post infection).
Plasma and tissue samples (kidney or thigh homogenates) were collected at 15, 30, 60, 120, 240 and 360 minutes. A population PK (PopPK) model was built in NONMEM using plasma exposures.
Specific pathogen free male CD-1 mice weighing ˜27 g were used throughout the PK and PD studies. For most studies, mice were rendered neutropenic with two IP doses of cyclophosphamide on day −4 (150 mg/kg) and day −1 (100 mg/kg). Plasma and tissue samples (kidney and/or thigh) were collected at 15, 30, 60, 120, 240 and 360 minutes post dose from competent or neutropenic infected mice (N=3/group) following a single subcutaneous (SC) dose of 6.25-200 mg/kg. Samples were assayed by LC/MS/MS; the lower limit of quantification was 0.05 ug/mL.
Non-compartmental Analysis (NCA): plasma NCA was conducted using Phoenix WinNonLin 6.3 (Pharsight) with the linear up log down method.
Population Pharmacokinetics (PopPK): • Total drug concentrations in plasma were converted to free drug values based on protein binding of 24% in mice. • A PopPK model was built to describe the drug exposure in plasma over time using NONMEM (7.3) and the software R (version 3.4.0) for diagnostic plots. • The final model was used to simulate exposures at the multiple dose levels evaluated in the efficacy studies.

[2] = system: Staphylococcus epidermidis; test: MIC by CLSI broth microdilution in CAMHB and urine, Example 5 Method 2; type: cell-based; conditions: for Mean MIC: n = 4; for MIC: Staphylococcus epidermidis
Procedure: The compounds were tested in serial two-fold dilutions and the minimum inhibitory concentration (MIC) was determined as the lowest concentration of the compound that inhibited visible growth.
In particular, gepotidacin was tested against 4 strains of Staphylococcus epidermidis from the collection of isolates at Laboratory Specialists, Inc., Westlake, Ohio.
Levofloxacin was included as the comparator in the study to determine the effect of urine on the in vitro activity of gepotidacin against Staphylococcus epidermidis. MICs were determined by broth microdilution according CLSI methods.
The data shown in the table below are results from an in vitro study conducted with the same S. epidermidis isolates described above, to determine the effect of urine on the in vitro activity of gepotidacin and levofloxacin against S. epidermidis. Study strains were tested for MICs according to reference CLSI broth microdilution method using cation-adjusted Mueller Hinton Broth (CAMHB) and with the addition of 25%, 50% and 100% urine (not pH adjusted, pH 6.42) and 100% urine (pH adjusted, 7.31 and 8.07).

O=c1ccc2ncc(=O)n3c2n1C[C@H]3CN1CCC(NCc2cc3c(cn2)OCCC3)CC1 [gepotidacin, (2R)-2-({4-[(3,4-dihydro-2H-pyrano[2,3-c]pyridin-6-ylmethyl)amino]-1-piperidinyl}methyl)-1,2-dihydro-3H,8H-2a,5,8a-triazaacenaphthylene-3,8-dione]
duration of infusion ([1]; PopPK final parameter estimate, plasma): 0.262 h
AUC0-6 in kidney, fold higher than in plasma ([1]; SC dosing, infected mice): 4- to 5 fold
AUC0-6 in thigh relative to plasma ([1]; SC dosing, infected mice): approximately half of plasma
clearance ([1]; male, CD-1, mouse, subcutaneous, PopPK final parameter estimate, plasma): 1.73 mL/min
Vd ([1]; male, CD-1, mouse, subcutaneous, PopPK final parameter estimate, plasma, read-out: volume of distribution): 0.151 L
fraction unbound ([1]; mouse, plasma, mice, read-out: protein binding (converted)): 0.76
MIC range ([2]; 2 isolates of methicillin-resistant S. epidermidis): 0.25 to 0.5 µg/mL
Mean Dilution Difference ([2]; 25% Urine (pH 7.09) vs CAMHB): −0.75
Mean difference ([2]; 25% Urine (pH 7.09) vs CAMHB): −0.17
N(%) ± 1 dilution ([2]; 25% Urine (pH 7.09) vs CAMHB): 4 (100%)
N(%) ± 2 dilution ([2]; 25% Urine (pH 7.09) vs CAMHB): 4 (100%)
Mean MIC ([2]; 25% Urine (pH 7.09)): 0.25 µg/mL
Mean Dilution Difference ([2]; 50% Urine (6.99) vs CAMHB): −1.01
Mean difference ([2]; 50% Urine (6.99) vs CAMHB): −0.21
N(%) ± 1 dilution ([2]; 50% Urine (6.99) vs CAMHB): 4 (100%)
N(%) ± 2 dilution ([2]; 50% Urine (6.99) vs CAMHB): 4 (100%)
Mean MIC ([2]; 50% Urine (6.99)): 0.21 µg/mL
Mean Dilution Difference ([2]; 100% Urine (pH 6.42) vs CAMHB): −0.26
Mean difference ([2]; 100% Urine (pH 6.42) vs CAMHB): −0.07
N(%) ± 1 dilution ([2]; 100% Urine (pH 6.42) vs CAMHB): 4 (100%)
N(%) ± 2 dilution ([2]; 100% Urine (pH 6.42) vs CAMHB): 4 (100%)
Mean MIC ([2]; 100% Urine (pH 6.42)): 0.35 µg/mL
Mean Dilution Difference ([2]; 100% Urine (pH 7.31) vs CAMHB): 0.25
Mean difference ([2]; 100% Urine (pH 7.31) vs CAMHB): 0.08
N(%) ± 1 dilution ([2]; 100% Urine (pH 7.31) vs CAMHB): 4 (100%)
N(%) ± 2 dilution ([2]; 100% Urine (pH 7.31) vs CAMHB): 4 (100%)
Mean MIC ([2]; 100% Urine (pH 7.31)): 0.5 µg/mL
Mean Dilution Difference ([2]; 100% Urine (pH 8.07) vs CAMHB): 0.00
Mean difference ([2]; 100% Urine (pH 8.07) vs CAMHB): 0.00
N(%) ± 1 dilution ([2]; 100% Urine (pH 8.07) vs CAMHB): 4 (100%)
N(%) ± 2 dilution ([2]; 100% Urine (pH 8.07) vs CAMHB): 4 (100%)
Mean MIC ([2]; 100% Urine (pH 8.07)): 0.42 µg/mL
mean dilution differences (range) ([2]; 100% urine (conclusion)): 0 to −0.26
Mean MIC ([2]; CAMHB (ref. method, pH 7.2)): 0.42 µg/mL
MIC ([2]; 2 isolates of methicillin-susceptible S. epidermidis, read-out: MIC): 0.5 µg/mL (≈ 1.11 µM)
MIC ([2]; at least one strain of methicillin-susceptible or methicillin-resistant S. epidermidis, read-out: MIC): ≤ 0.5 µg/mL
MIC ([2]; read-out: MICs, methicillin-susceptible and methicillin-resistant isolates tested (conclusion), heading: MICs): < 0.5 µg/mL
mean dilution differences (range) ([2]; addition of urine vs CAMHB): 0 to −1.01
MIC fold greater than the levofloxacin MIC ([2]; each of the methicillin-resistant S. epidermidis): 4 fold
MIC fold greater than the levofloxacin MIC ([2]; methicillin-susceptible S. epidermidis): 2 fold
